{"source": "paper PMC9403976", "about": "“Elucidating the path to Plasmodium prolyl-tRNA synthetase inhibitors that overcome halofuginone resistance” (Nature Communications, 2022)", "key": {"[1]": {"test_system": "HFGR-I P. falciparum (elevated proline homeostasis and PfcProRS^L482H)", "test": "P. falciparum ABS growth assay, SYBR Green, 72 h, HFGR-I parasites", "type": "cell-based, Plasmodium falciparum", "conditions": "HFGR-I", "method_in_brief": "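Dd2-derived P. falciparum lines (HFGR-I, halofuginone-induced) at 1% parasitemia and 1% hematocrit in RPMI + 0.5% Albumax were exposed to compounds in triplicate dose-response for 72 h. Growth was read as SYBR Green 1 fluorescence, with 10 μM dihydroartemisinin as kill control and compound-free wells as growth control.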"}, "HsProRS": {"target": "HsProRS (Homo sapiens, UniProt P07814)", "sequence (P07814 996-1512)": "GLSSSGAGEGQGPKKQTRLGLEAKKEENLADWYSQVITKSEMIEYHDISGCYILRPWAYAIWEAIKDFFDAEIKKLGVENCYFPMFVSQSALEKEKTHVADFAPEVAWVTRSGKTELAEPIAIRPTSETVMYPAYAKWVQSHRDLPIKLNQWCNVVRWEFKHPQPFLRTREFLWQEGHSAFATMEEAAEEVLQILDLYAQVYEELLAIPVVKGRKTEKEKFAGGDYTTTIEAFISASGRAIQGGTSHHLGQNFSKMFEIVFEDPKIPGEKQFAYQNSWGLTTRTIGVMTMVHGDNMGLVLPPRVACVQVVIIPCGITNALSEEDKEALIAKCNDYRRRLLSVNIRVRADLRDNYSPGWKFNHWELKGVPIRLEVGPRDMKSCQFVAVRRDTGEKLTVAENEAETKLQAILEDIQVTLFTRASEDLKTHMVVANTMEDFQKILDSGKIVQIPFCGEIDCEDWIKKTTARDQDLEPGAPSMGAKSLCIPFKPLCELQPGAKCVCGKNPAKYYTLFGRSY", "test": "TR-FRET ligand displacement assay with tracer MAT379 (CoraFluor-1-Halo and anti-His6 antibody formats)", "type": "binding", "set-up": "made in house; host or cells: E. coli SoluBL-21", "conditions": "for TR-FRET dose-response, normalized signal (SI Fig 11): individual replicates; for normalized TR-FRET signal (dose-response replicates): SI Fig 15"}}, "note": "“And” between values parts separate entries of the source, which are not always exact repeats. Equal values may be shown once.", "data": [{"smiles": "O=C(NC1Cc2ccccc2C1)c1nccnc1NC(=O)C1CCCCC1", "note": "[compound 2, reference compound]", "values": [{"measurement": "parasite growth, replicate wells (Fig 1b)", "setting": "[1]; Log[inhibitor] (M) -8.260", "value": "1.03E+02 and 9.80E+01 and 1.01E+02"}, {"measurement": "parasite growth, replicate wells (Fig 1b)", "setting": "[1]; Log[inhibitor] (M) -8.699", "value": "9.70E+01 (2×) and 9.90E+01"}, {"measurement": "parasite growth, replicate wells (Fig 1b)", "setting": "[1]; Log[inhibitor] (M) -9.000", "value": "1.04E+02 and 1.02E+02 and 9.80E+01"}, {"measurement": "parasite growth, replicate wells (Fig 1b)", "setting": "[1]; Log[inhibitor] (M) -9.488", "value": "9.60E+01 and 9.50E+01 and 9.40E+01"}, {"measurement": "Kd", "setting": "HsProRS; HsProRS (KD [nM]) + ATP, 500 μM ATP, 250 nM MAT379", "value": 954, "unit": "nM"}, {"measurement": "Kd", "setting": "HsProRS; HsProRS (KD [nM]) −, absence of substrates, 250 nM MAT379", "value": 371, "unit": "nM"}, {"measurement": "Kd", "setting": "HsProRS; HsProRS - best Kd, SI Fig 16a, values on -log scale", "value": 2.16, "unit": "nM"}, {"measurement": "normalized TR-FRET ligand displacement signal, dose-response replicates (SI Fig 6)", "setting": "HsProRS; Log[inhibitor] (M) -5.000", "value": "1.03E-01 and 7.51E-02 and 1.04E-01"}, {"measurement": "TR-FRET dose-response, normalized signal (SI Fig 11)", "setting": "HsProRS; Log[inhibitor] (M) -5.000", "value": "8.64E-04 and 3.42E-02 and 3.40E-02"}, {"measurement": "normalized TR-FRET ligand displacement signal, dose-response replicates (SI Fig 6)", "setting": "HsProRS; Log[inhibitor] (M) -5.301", "value": "1.90E-01 and 1.89E-01 and 1.86E-01"}, {"measurement": "TR-FRET dose-response, normalized signal (SI Fig 11)", "setting": "HsProRS; Log[inhibitor] (M) -5.301", "value": "7.30E-02 and 5.51E-02 and 3.97E-02"}, {"measurement": "normalized TR-FRET ligand displacement signal, dose-response replicates (SI Fig 6)", "setting": "HsProRS; Log[inhibitor] (M) -5.602", "value": "3.08E-01 and 2.37E-01 and 3.84E-01"}, {"measurement": "TR-FRET dose-response, normalized signal (SI Fig 11)", "setting": "HsProRS; Log[inhibitor] (M) -5.602", "value": "1.33E-01 and 1.75E-01 and 1.42E-01"}, {"measurement": "normalized TR-FRET ligand displacement signal, dose-response replicates (SI Fig 6)", "setting": "HsProRS; Log[inhibitor] (M) -5.903", "value": "6.24E-01 and 5.01E-01 and 5.97E-01"}, {"measurement": "TR-FRET dose-response, normalized signal (SI Fig 11)", "setting": "HsProRS; Log[inhibitor] (M) -5.903", "value": "2.61E-01 and 2.29E-01 and 2.70E-01"}, {"measurement": "normalized TR-FRET ligand displacement signal, dose-response replicates (SI Fig 6)", "setting": "HsProRS; Log[inhibitor] (M) -6.204", "value": "7.10E-01 and 7.38E-01 and 7.90E-01"}, {"measurement": "TR-FRET dose-response, normalized signal (SI Fig 11)", "setting": "HsProRS; Log[inhibitor] (M) -6.204", "value": "4.85E-01 and 4.00E-01 and 4.14E-01"}, {"measurement": "normalized TR-FRET ligand displacement signal, dose-response replicates (SI Fig 6)", "setting": "HsProRS; Log[inhibitor] (M) -6.505", "value": "9.53E-01 and 9.22E-01 and 9.58E-01"}, {"measurement": "TR-FRET dose-response, normalized signal (SI Fig 11)", "setting": "HsProRS; Log[inhibitor] (M) -6.505", "value": "5.65E-01 and 5.68E-01 and 5.80E-01"}, {"measurement": "normalized TR-FRET ligand displacement signal, dose-response replicates (SI Fig 6)", "setting": "HsProRS; Log[inhibitor] (M) -6.806", "value": "8.96E-01 and 9.59E-01 and 9.45E-01"}, {"measurement": "TR-FRET dose-response, normalized signal (SI Fig 11)", "setting": "HsProRS; Log[inhibitor] (M) -6.806", "value": "6.77E-01 and 7.64E-01 and 7.01E-01"}, {"measurement": "normalized TR-FRET ligand displacement signal, dose-response replicates (SI Fig 6)", "setting": "HsProRS; Log[inhibitor] (M) -7.107", "value": "1.10E+00 and 1.02E+00 and 1.05E+00"}, {"measurement": "TR-FRET dose-response, normalized signal (SI Fig 11)", "setting": "HsProRS; Log[inhibitor] (M) -7.107", "value": "8.54E-01 and 8.95E-01 and 8.55E-01"}, {"measurement": "normalized TR-FRET ligand displacement signal, dose-response replicates (SI Fig 6)", "setting": "HsProRS; Log[inhibitor] (M) -7.408", "value": "1.04E+00"}, {"measurement": "TR-FRET dose-response, normalized signal (SI Fig 11)", "setting": "HsProRS; Log[inhibitor] (M) -7.408", "value": "8.94E-01 and 8.78E-01 and 9.74E-01"}, {"measurement": "normalized TR-FRET ligand displacement signal, dose-response replicates (SI Fig 6)", "setting": "HsProRS; Log[inhibitor] (M) -7.709", "value": "9.76E-01 and 1.06E+00 and 1.03E+00"}, {"measurement": "TR-FRET dose-response, normalized signal (SI Fig 11)", "setting": "HsProRS; Log[inhibitor] (M) -7.709", "value": "9.26E-01 and 9.17E-01 and 9.24E-01"}, {"measurement": "normalized TR-FRET ligand displacement signal, dose-response replicates (SI Fig 6)", "setting": "HsProRS; Log[inhibitor] (M) -8.010", "value": "9.42E-01 and 1.05E+00 and 9.60E-01"}, {"measurement": "TR-FRET dose-response, normalized signal (SI Fig 11)", "setting": "HsProRS; Log[inhibitor] (M) -8.010", "value": "9.79E-01 and 9.27E-01 and 9.78E-01"}, {"measurement": "normalized TR-FRET ligand displacement signal, dose-response replicates (SI Fig 6)", "setting": "HsProRS; Log[inhibitor] (M) -8.311", "value": "1.02E+00 and 9.93E-01 and 1.06E+00"}, {"measurement": "TR-FRET dose-response, normalized signal (SI Fig 11)", "setting": "HsProRS; Log[inhibitor] (M) -8.311", "value": "9.15E-01 and 9.66E-01 and 9.82E-01"}, {"measurement": "normalized TR-FRET ligand displacement signal, dose-response replicates (SI Fig 6)", "setting": "HsProRS; Log[inhibitor] (M) -8.612", "value": "9.95E-01 and 1.01E+00 and 1.07E+00"}, {"measurement": "TR-FRET dose-response, normalized signal (SI Fig 11)", "setting": "HsProRS; Log[inhibitor] (M) -8.612", "value": "9.61E-01 and 9.59E-01 and 9.62E-01"}, {"measurement": "normalized TR-FRET ligand displacement signal, dose-response replicates (SI Fig 6)", "setting": "HsProRS; Log[inhibitor] (M) -8.913", "value": "1.02E+00 and 1.03E+00 and 9.75E-01"}, {"measurement": "TR-FRET dose-response, normalized signal (SI Fig 11)", "setting": "HsProRS; Log[inhibitor] (M) -8.913", "value": "9.90E-01 and 9.95E-01 and 9.69E-01"}, {"measurement": "normalized TR-FRET ligand displacement signal, dose-response replicates (SI Fig 6)", "setting": "HsProRS; Log[inhibitor] (M) -9.214", "value": "9.83E-01 and 1.03E+00 and 1.00E+00"}, {"measurement": "TR-FRET dose-response, normalized signal (SI Fig 11)", "setting": "HsProRS; Log[inhibitor] (M) -9.214", "value": "9.62E-01 and 1.02E+00 and 1.04E+00"}, {"measurement": "normalized TR-FRET signal (dose-response replicates)", "setting": "HsProRS; Log[inhibitor] (M) -4.99976", "value": "1.25E-01 and 2.68E-01 and 1.89E-01"}, {"measurement": "normalized TR-FRET signal (dose-response replicates)", "setting": "HsProRS; Log[inhibitor] (M) -5.3009", "value": "2.77E-01 and 4.13E-01 and 4.17E-01"}, {"measurement": "normalized TR-FRET signal (dose-response replicates)", "setting": "HsProRS; Log[inhibitor] (M) -5.60199", "value": "5.80E-01 and 6.20E-01 and 4.83E-01"}, {"measurement": "normalized TR-FRET signal (dose-response replicates)", "setting": "HsProRS; Log[inhibitor] (M) -5.90248", "value": "7.22E-01 and 7.32E-01 and 6.10E-01"}, {"measurement": "normalized TR-FRET signal (dose-response replicates)", "setting": "HsProRS; Log[inhibitor] (M) -6.20323", "value": "6.14E-01 and 7.99E-01 and 9.70E-01"}, {"measurement": "normalized TR-FRET signal (dose-response replicates)", "setting": "HsProRS; Log[inhibitor] (M) -6.51347", "value": "9.27E-01 and 8.30E-01 and 1.04E+00"}, {"measurement": "normalized TR-FRET signal (dose-response replicates)", "setting": "HsProRS; Log[inhibitor] (M) -6.79595", "value": "1.19E+00 and 9.68E-01 and 1.04E+00"}, {"measurement": "normalized TR-FRET signal (dose-response replicates)", "setting": "HsProRS; Log[inhibitor] (M) -7.10794", "value": "9.40E-01 and 8.31E-01 and 8.97E-01"}, {"measurement": "normalized TR-FRET signal (dose-response replicates)", "setting": "HsProRS; Log[inhibitor] (M) -7.40526", "value": "6.74E-01 and 8.60E-01 and 9.73E-01"}, {"measurement": "normalized TR-FRET signal (dose-response replicates)", "setting": "HsProRS; Log[inhibitor] (M) -7.7137", "value": "9.61E-01 and 8.55E-01 and 9.51E-01"}, {"measurement": "normalized TR-FRET signal (dose-response replicates)", "setting": "HsProRS; Log[inhibitor] (M) -8", "value": "9.74E-01 and 7.58E-01 and 8.90E-01"}, {"measurement": "normalized TR-FRET signal (dose-response replicates)", "setting": "HsProRS; Log[inhibitor] (M) -8.331", "value": "8.05E-01 and 1.09E+00 and 1.00E+00"}, {"measurement": "normalized TR-FRET signal (dose-response replicates)", "setting": "HsProRS; Log[inhibitor] (M) -8.57403", "value": "1.32E+00 and 1.15E+00 and 1.19E+00"}, {"measurement": "normalized TR-FRET signal (dose-response replicates)", "setting": "HsProRS; Log[inhibitor] (M) -8.87506", "value": "9.35E-01 and 9.99E-01 and 1.09E+00"}, {"measurement": "normalized TR-FRET signal (dose-response replicates)", "setting": "HsProRS; Log[inhibitor] (M) -9.17609", "value": "1.03E+00 and 1.04E+00 and 1.09E+00"}]}]}
